# Experimental data reported in ChEMBL document CHEMBL1201862, “PubChem BioAssay data set” (2004).
# Active and inactive are the calls of the source.
# Key:
# [1] = luciferase reporter signal suppression in cells – H4 neuroglioma cells, luminescence, dose response (AID 1990); assay type: functional, cell-based
# [2] = test system: Streptococcus sp. 'group A'; assay: Streptococcus pyogenes SK(-)GAS viability under kanamycin – luminescence, BacTiterGlo, confirmation, counter-screen for streptokinase expression inhibitor project, dose response (AID 1900); assay type: functional, organism-based
# [3] = Luminescence Cell-Based Dose Response HTS to Identify Inhibitors of 5'UTR Stem-Loop Driven Prion Protein mRNA Translation in H4 Neuroglioblastoma Cells. [Related pubchem assays: 1827 (Project Summary), 1813 (Primary HTS)]; assay type: functional
# [4] = alpha-synuclein stem-loop luciferase translation blockers – H4 neuroglioma cells, luminescence, confirmation (AID 1988); assay type: functional, cell-based
# Streptokinase A = target: T1, Streptokinase A (Streptococcus pyogenes serotype M1, UniProt P10520); assay: viability-normalized secreted streptokinase activity reduction – plasminogen activation absorbance, OD405, dose response (AID 1914); assay type: functional, Streptococcus pyogenes M1 GAS;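 further: secreted streptokinase activity via plasminogen activation per viability signal from cell pellet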
# T1 sequence (P10520 whole entry): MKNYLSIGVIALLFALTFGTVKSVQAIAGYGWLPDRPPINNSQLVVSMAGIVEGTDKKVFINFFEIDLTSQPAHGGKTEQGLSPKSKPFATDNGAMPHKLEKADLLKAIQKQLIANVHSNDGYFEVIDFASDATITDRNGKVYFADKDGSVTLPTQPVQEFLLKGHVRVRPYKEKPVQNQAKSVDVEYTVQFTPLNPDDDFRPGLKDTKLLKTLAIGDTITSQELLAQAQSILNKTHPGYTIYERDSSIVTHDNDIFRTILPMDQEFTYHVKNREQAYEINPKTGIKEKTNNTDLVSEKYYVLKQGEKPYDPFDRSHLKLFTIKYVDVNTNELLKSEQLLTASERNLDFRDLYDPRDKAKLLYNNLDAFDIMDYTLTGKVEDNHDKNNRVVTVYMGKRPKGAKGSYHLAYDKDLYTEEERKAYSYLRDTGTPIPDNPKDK
# Streptococcus = assay: GAS UMAA2166 growth inhibition – luminescence, BacTiterGlo, counter-screen for streptokinase expression inhibitor project, dose response (AID 1915); assay type: functional, organism-based;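 further: potency for reduction of bacterial viability or growth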
# [5] = target: T2, Microphthalmia-associated transcription factor (Homo sapiens, UniProt O75030); assay: reducers of TRPM1 reporter luminescence, concentration series – cell-based, SK-MEL-5, cherry-picked, set 3, MITF inhibitor project, dose response (AID 493073); assay type: functional;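 further: SK-MEL-5 melanoma cells with luciferase driven by the MITF target TRPM1 promoter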
# T2 sequence (O75030 whole entry): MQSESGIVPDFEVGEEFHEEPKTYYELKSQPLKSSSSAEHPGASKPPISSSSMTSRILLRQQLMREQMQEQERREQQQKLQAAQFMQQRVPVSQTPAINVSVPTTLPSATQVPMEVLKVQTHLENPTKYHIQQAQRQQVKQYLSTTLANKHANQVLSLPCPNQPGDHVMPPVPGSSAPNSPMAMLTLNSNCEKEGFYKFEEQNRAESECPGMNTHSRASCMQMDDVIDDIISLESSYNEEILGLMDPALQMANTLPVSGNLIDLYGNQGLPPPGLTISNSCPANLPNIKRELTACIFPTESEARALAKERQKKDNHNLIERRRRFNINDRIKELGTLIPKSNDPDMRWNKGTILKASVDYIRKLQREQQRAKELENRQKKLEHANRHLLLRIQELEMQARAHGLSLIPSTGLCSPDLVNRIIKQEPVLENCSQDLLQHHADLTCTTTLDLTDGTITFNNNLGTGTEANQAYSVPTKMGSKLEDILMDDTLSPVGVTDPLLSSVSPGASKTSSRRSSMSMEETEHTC
# CHO = CHO cell viability loss, potency – luminescence, cytotoxicity control for TLR9-MyD88 binding inhibitor project, dose response (AID 588339); assay type: functional, cell-based, hamster; conditions: Cricetulus griseus;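 further: CHO cells stably coexpressing TLR9 and MyD88 fusions from primary screen; compound exposure lasted 48 hours before viability readout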
# Beta Lactamase = Beta Lactamase (Pseudomonas aeruginosa, UniProt Q932Y6); assay: BLA reporter interference, concentration series – BLA reporter cells, FRET fluorescence, artefact control for TLR9-MyD88 binding inhibitor project, dose response (AID 588341); assay type: cell-based;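 further: cell based assay in CHO-K1 cells stably expressing beta-lactamase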
# INS1 = assay: INS-1E survival protection against cytokine death – cell-based, luminescence, retest, dose response (AID 449756); assay type: functional; conditions: Rattus norvegicus;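 further: cell death triggered by IL-1 beta plus TNF-alpha plus IFN-gamma mixture; protective hits raise ATP signal compared with cytokine alone wells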
# A-375 = assay: proliferation inhibition in MITF-low A375 cells – cell-based, cherry-pick samples, set 2, counter-screen for MITF modulator project, dose response (AID 540335); assay type: functional; conditions: Homo sapiens
# [6] = reduction of Shn3 3'UTR-driven luciferase in osteoblasts – cell-based, Clone20 osteoblasts, firefly luciferase, cherry-picked, dose response (AID 624132); assay type: functional;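 further: firefly luciferase luminescence from reporter carrying the Shn3 3'UTR in osteoblasts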
# [7] = loss of viability in HepG2 cells – cell-based, CellTiter-Glo, cherry-picked, cytotoxicity control for Shn3 inhibitor project, dose response (AID 624134); assay type: functional
# [8] = non-specific 3'UTR reporter inhibition in Clone20-Shn3RL – cell-based, Renilla luciferase, cherry-picked, counter-screen for Shn3 inhibitor project, dose response (AID 624133); assay type: functional
# [9] = target: T3, RNA-binding protein pos-1 (Caenorhabditis elegans, UniProt G5EF15); assay: disruptors of C. elegans POS-1 RNA interaction – biochemical, fluorescence polarization, dose response (AID 1964);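 further: purified POS-1 fused to maltose binding protein made in E. coli; potency of compounds blocking POS-1 binding to fluorescent RNA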
# T3 sequence (G5EF15 whole entry): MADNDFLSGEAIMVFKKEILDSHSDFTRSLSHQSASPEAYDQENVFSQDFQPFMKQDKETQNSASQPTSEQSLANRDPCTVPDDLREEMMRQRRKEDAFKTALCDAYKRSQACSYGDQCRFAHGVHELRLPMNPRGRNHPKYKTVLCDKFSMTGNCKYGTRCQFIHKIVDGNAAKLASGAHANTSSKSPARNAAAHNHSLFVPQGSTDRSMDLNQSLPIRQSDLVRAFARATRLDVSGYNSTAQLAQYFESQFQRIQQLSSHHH
# [10] = target: T4, Zinc finger protein mex-5 (Caenorhabditis elegans, UniProt Q9XUB2); assay: potency of MEX-5 RNA-binding blockers – biochemical, C. elegans, fluorescence polarization, dose response (AID 1960)
# T4 sequence (Q9XUB2 whole entry): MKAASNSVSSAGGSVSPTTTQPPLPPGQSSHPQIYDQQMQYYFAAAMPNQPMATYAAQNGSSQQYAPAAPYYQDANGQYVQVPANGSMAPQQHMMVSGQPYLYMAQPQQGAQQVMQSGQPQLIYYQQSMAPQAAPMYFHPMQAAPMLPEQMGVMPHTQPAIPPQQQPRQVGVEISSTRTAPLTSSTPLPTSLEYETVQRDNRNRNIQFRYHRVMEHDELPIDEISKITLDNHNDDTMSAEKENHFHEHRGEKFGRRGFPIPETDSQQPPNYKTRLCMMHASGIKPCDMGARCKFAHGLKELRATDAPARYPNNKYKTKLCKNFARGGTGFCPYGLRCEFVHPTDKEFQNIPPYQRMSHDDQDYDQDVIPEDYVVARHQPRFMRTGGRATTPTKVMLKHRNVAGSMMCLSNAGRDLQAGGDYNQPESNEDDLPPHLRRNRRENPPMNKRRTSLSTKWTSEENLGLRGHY
# [11] = target: Glucose-6-phosphate 1-dehydrogenase (Homo sapiens, UniProt P11413); assay: inhibition of Homo sapiens G6PD, dose series – biochemical, fluorescence, selectivity assay for P. falciparum G6PD inhibitor project, dose response (AID 504792); assay type: functional
# [12] = target: 26S proteasome non-ATPase regulatory subunit 14 (Homo sapiens, UniProt O00487); assay: inhibition of proteasome subunit RPN11 – biochemical, fluorescence polarization, uHTS hits, confirmation (AID 602368); assay type: functional
# [13] = target: 72 kDa type IV collagenase (Homo sapiens, UniProt P08253); assay: Dose Response validation of uHTS RPN11 inhibitor hits using a MMP-2 Fluorescence assay.; assay type: functional
# Prothrombin = Prothrombin (Bos taurus, UniProt P00735); assay: thrombin protease inhibitors – biochemical, fluorescence polarization, uHTS hits, dose response (AID 602369); assay type: functional
# [14] = target: Nuclear receptor subfamily 5 group A member 2 (Homo sapiens, UniProt O00482); assay type: functional, cell-based;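 further: HEK293T cells transfected with LRH-1 and a StAR promoter luciferase reporter; potency for inhibitors that lower LRH-1 driven reporter light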
# Steroidogenic factor 1 = Steroidogenic factor 1 (Homo sapiens, UniProt Q13285); assay: Counterscreen for inverse agonists of the liver receptor homolog-1 (LRH-1; NR5A2): Luminescence-based cell-based high throughput dose response assay to identify inverse agonists of the Steroidogenic Factor 1 Nuclear Receptor (SF1; NR5A1).; assay type: functional
# [15] = nonselective StAR promoter luciferase inhibitors – cell-based, luminescence, luciferase reporter, counter-screen for LRH-1 inverse agonist project, dose response (AID 651969); assay type: functional
# [16] = target: DNA repair protein RAD52 homolog (Homo sapiens, UniProt P43351); assay type: functional, biochemical
# HEK293 [17] = assay: cells; assay type: functional, cell-based; conditions: Homo sapiens
# [18] = target: T5, Nuclear receptor subfamily 0 group B member 1 (Homo sapiens, UniProt P51843); assay: Luminescence-based cell-based high throughput dose response assay for inhibitors of the orphan nuclear receptor subfamily 0, group B, member 1 (DAX1; NR0B1). [Related pubchem assays (depositor defined):AID504766, AID504790]; assay type: functional
# T5 sequence (P51843 whole entry): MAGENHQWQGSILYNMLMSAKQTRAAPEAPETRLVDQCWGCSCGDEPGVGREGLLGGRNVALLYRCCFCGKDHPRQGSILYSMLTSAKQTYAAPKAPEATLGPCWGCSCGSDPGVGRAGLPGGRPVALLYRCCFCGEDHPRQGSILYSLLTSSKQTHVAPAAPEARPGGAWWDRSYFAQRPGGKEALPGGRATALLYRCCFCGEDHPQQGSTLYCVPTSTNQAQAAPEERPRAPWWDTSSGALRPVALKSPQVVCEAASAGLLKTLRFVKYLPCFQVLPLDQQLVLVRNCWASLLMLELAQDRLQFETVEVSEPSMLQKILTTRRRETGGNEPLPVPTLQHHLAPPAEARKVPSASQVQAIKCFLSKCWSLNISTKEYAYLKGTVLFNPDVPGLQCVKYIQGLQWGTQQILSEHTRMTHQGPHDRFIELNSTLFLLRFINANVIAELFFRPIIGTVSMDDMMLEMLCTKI
# HEK293 [19] = assay: HEK293T cell viability loss, resazurin readout – resazurin fluorescence, cytotoxicity control for NF-kB activator project, SAR follow-up (AID 493251); assay type: functional, cell-based; conditions: Homo sapiens, HEK293
# Jurkat = assay: SAR Analysis of small molecule inhibitors of T-cell specific antigen receptor-induced NF-kB activation in a Jurkat cell line using a luminescence assay - Set 2. [Related pubchem assays (depositor defined):AID435003, AID435012, AID465]; assay type: functional, cell-based; conditions: Homo sapiens
# HEK293 [20] = assay: SAR Analysis of small molecule inhibitors of T-cell specific antigen receptor-induced NF-kB activation in a HEK-293T cell line using a luminescence assay - Set 2. [Related pubchem assays (depositor defined):AID435003, AID435012, AID489026]; assay type: functional, cell-based; conditions: Homo sapiens
# Chain of Beta Lactamase (Q932Y6 whole entry): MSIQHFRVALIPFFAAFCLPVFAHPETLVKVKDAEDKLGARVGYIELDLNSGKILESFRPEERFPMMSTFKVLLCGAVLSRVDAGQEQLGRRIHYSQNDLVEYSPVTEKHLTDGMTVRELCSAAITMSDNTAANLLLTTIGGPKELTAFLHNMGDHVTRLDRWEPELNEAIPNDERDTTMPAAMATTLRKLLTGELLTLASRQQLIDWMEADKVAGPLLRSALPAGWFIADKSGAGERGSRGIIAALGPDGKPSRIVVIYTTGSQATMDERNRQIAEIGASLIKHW
# Chain of 26S proteasome non-ATPase regulatory subunit 14 (O00487 whole entry): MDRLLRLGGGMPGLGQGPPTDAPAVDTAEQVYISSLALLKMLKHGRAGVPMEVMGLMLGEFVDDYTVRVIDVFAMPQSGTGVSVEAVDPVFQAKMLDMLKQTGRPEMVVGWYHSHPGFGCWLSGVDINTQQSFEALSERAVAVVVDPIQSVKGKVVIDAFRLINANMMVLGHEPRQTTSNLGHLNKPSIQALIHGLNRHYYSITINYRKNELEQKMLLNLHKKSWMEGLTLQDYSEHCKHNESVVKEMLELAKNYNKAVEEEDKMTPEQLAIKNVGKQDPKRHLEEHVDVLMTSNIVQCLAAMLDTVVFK
# Chain of Nuclear receptor subfamily 5 group A member 2 (O00482 whole entry): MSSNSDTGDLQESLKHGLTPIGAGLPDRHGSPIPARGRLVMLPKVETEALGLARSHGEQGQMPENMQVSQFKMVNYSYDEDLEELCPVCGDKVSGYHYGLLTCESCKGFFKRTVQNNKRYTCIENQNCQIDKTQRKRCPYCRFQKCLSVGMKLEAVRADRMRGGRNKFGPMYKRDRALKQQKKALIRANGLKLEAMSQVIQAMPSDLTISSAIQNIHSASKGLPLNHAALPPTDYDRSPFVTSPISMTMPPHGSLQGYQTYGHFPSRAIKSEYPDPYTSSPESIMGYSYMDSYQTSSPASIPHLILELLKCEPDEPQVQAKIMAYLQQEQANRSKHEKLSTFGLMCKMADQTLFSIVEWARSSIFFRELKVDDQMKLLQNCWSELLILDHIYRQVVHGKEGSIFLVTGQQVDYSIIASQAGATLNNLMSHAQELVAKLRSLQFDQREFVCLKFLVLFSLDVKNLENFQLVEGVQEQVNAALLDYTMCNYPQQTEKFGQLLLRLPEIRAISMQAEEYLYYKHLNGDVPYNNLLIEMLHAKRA
# Chain of Steroidogenic factor 1 (Q13285 whole entry): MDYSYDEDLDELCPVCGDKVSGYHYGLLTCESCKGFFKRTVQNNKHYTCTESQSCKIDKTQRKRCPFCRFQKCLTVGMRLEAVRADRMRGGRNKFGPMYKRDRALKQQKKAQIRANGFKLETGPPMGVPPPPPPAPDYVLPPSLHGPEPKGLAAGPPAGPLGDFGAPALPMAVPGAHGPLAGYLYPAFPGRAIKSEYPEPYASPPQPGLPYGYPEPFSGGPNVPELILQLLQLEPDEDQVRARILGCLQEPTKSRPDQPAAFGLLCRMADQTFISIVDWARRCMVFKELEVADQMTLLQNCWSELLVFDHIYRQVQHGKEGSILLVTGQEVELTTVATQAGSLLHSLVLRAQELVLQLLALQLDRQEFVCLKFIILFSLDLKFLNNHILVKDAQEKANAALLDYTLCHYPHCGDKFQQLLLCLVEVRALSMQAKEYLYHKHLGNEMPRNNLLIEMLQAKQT
# Chain of 72 kDa type IV collagenase (P08253 whole entry): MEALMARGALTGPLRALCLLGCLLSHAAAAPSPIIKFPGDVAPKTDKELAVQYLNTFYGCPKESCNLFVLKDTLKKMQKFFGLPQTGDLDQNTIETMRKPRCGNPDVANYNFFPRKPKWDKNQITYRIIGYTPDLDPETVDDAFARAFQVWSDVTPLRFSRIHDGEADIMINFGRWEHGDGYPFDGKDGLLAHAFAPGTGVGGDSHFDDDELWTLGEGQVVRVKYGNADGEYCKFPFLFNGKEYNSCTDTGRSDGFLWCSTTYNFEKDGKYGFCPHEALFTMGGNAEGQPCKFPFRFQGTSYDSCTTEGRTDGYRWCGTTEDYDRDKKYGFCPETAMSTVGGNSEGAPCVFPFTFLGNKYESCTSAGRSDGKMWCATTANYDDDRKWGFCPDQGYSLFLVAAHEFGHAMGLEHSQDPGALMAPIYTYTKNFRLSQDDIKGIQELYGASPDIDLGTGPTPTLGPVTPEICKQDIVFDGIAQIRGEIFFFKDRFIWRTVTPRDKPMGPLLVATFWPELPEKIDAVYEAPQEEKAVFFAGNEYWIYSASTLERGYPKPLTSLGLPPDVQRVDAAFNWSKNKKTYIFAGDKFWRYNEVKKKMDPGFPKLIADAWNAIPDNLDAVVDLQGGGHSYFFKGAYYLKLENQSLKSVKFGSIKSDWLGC
# Chain of DNA repair protein RAD52 homolog (P43351 whole entry): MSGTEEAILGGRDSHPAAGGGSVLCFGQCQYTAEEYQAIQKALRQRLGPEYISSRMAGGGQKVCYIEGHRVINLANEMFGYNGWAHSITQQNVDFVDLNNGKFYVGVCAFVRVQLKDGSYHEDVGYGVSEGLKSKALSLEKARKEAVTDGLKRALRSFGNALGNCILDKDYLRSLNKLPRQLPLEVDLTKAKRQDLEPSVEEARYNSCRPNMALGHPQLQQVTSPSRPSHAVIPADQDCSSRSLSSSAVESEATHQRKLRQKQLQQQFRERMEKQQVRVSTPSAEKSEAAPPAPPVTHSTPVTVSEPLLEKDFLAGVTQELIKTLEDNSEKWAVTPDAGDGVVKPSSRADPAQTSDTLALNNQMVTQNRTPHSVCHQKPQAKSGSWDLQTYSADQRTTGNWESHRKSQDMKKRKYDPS
# Chain of Glucose-6-phosphate 1-dehydrogenase (P11413 whole entry): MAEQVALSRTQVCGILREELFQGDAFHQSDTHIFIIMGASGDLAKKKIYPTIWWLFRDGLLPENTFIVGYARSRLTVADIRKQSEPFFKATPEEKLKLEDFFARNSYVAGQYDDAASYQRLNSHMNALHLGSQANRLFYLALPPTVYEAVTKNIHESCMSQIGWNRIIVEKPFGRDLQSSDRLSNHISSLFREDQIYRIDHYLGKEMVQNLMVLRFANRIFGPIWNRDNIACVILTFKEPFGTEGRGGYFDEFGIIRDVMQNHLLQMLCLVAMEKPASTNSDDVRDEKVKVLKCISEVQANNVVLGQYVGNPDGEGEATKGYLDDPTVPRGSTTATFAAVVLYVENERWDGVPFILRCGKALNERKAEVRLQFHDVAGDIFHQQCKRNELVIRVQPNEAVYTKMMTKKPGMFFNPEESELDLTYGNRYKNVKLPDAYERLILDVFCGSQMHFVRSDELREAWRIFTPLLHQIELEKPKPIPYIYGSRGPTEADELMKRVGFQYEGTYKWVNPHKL
structure (smiles),measurement,setting,value
CCOC(=O)c1ccc(NC(=O)c2nc(S(=O)(=O)Cc3ccccc3)ncc2Cl)cc1,EC50,[1],> 120 µM (not active)
same,EC50,[2],6.81 µM (active)
same,EC50,[3],10.3 µM (active)
same,EC50,[4],10.8 µM (active)
same,EC50,Streptokinase A,2.11 µM (active)
same,EC50,Streptococcus,10 µM (active)
same,AC50,[5],9.92 µM (active)
same,IC50,CHO,1.95 µM (active)
same,IC50,Beta Lactamase,8.4 µM (active)
same,AC50,INS1,6.7 µM (active)
same,AC50,A-375,36.6 µM (active)
same,AC50,[6],0.572 µM (active)
same,AC50,[7],28.9 µM (active)
same,AC50,[8],7.7 µM (active)
O=C(CCl)NCCN1C(=O)S/C(=C\c2cccnc2)C1=O,EC50,[9],> 300 µM (not active)
same,EC50,[10],> 300 µM (not active)
same,IC50,[11],> 80 µM (inactive)
same,IC50,[12],7.21 µM (active)
same,IC50,[13],21.2 µM (active)
same,IC50,Prothrombin,> 100 µM (inactive)
same,IC50,[14],8.94 µM (active)
same,IC50,Steroidogenic factor 1,3.69 µM (active)
same,IC50,[15],26.4 µM (inactive)
same,AC50,[16],2.24 µM (active)
CSCC[C@H](NC(=O)OC(C)(C)C)C(=O)N1CCC(C(=O)N[C@@H](C)C(=O)NC(C)c2ccccc2)CC1 (some centres undefined),IC50,HEK293 [17],> 67.5 µM (inactive)
same,IC50,[18],> 67.5 µM (inactive)
COc1ccc(C(NC(=O)Cc2ccccc2)c2ccc3cccnc3c2O)cc1OC (centres undefined),IC50,HEK293 [19],11.2 µM (active)
same,IC50,Jurkat,2.24 µM (active)
same,IC50,HEK293 [20],2.61 µM (active)
